# “Also recorded” adds a separate entry of the source.
# Tests used:
# [1] = Plasma amino acid levels after glucose ingestion (Example I, Table 1); format: in vivo, human
# Method: (§1) Six healthy, non-obese, fasting subjects each received, on different days 0, 6, 12.5, 25 or 50 g of glucose (Glucola) in a total volume of 100 ml.
# (§2) Following a protocol approved by the Massachusetts Institute of Technology Committee on the Use of Humans as Experimental Subjects, 6 healthy volunteer outpatients, aged 25-33 years, participated in the study; 3 were males and 3 females. Mean weight was 60 kg for the women and 70 for the men; all subjects were within 10% of their ideal body weight as determined by Metropolitan Life Insurance Company tables. […] Subjects were asked to take meals rich in carbohydrate content (about 300 g/day) for 3 days before beginning the study. On 5 separate days, each subject fasted from 8 p.m. until 9 the next morning and then received a load of 0, 6, 12.5, 25 or 50 g of glucose (caffeine-free glucola) dissolved in water in a total volume of 100 ml; the order of doses was randomized. Venous blood samples were drawn from the antecubital vein through an indwelling catheter at 0, 60 and 120 min for all doses and additionally at 30 and 180 min for the 12.5, 25 and 50 g doses. Blood was collected in heparanized tubes; after centrifugation plasma was stored at -20° C. until analyzed. […] Glucose was analyzed spectrophotometrically after reaction with O-toluidine in hot acidic acid (Sigma Bulletin #635;15). Insulin was measured using a commercial radioimmunoassay kit by a double antibody method (Bio-RIA, Louisville, Ky.). Plasma tryptophan was measured fluorometrically on 20 μl plasma aliquots by the method of Denckla and Dewey, J. Lab. Clin. Med. 69: 160-169, 1967, as modified by Lehman, Scand. J. Clin. Lab. Invest. 28: 49-55, 1971. Branched-chain amino acids and aromatic amino acids were measured in 500 μl aliquots of plasma, deproteinized with sulfosalicylic acid, using a Beckman amino acid analyzer (Beckman Instruments, Palo Alto, Calif., Model 119C).
# (§3) Data, given as means ±SE errors, were analyzed by two-way analysis of variance; factors compared were dose and time. The Scheffe test was employed to test the statistical significance of differences; p<0.05 was considered significant. Areas under the curves were evaluated by the method of trapezoid approximation. Student tests for paired data were used to evaluate the significance of changes in individual amino acids. Amino acid concentrations after treatments for each subject were also expressed as a percentage of that day's pretreatment levels; mean percent changes were then calculated for each treatment and time interval.
# Sum of the LNAA: total concentration of leucine, isoleucine, valine,
# the sum of the LNAA, measured 0, 60 and 120 min after 6 nonobese, fasting
# subjects ingested 0, 6, 12.5, 25 or 50 g of glucose. All plasma amino
# acids, except tryptophan, were measured on a Beckman amino acid analyzer.
# Tryptophan was measured by the method of Denckla and Dewey. Data are
# expressed as means ± S.E.M.
# clinical = conditions: in vivo
# Method: as §1
# as §2, with “Venous blood samples were drawn from the antecubital vein through an indwelling catheter at 0, 60 and 120 min for all doses and additionally at 30 and 180 min for the 12.5, 25 and 50 g doses.” left out, “Clin. Med. 69: 160-169, 1967, as modified by Lehman, Scand. J. Clin. Lab. Invest. 28: 49-55, 1971.” left out
# Data, given as means ±SE errors, were analyzed by two-way analysis of variance; factors compared were dose and time. […] Areas under the curves were evaluated by the method of trapezoid approximation. […] Amino acid concentrations after treatments for each subject were also expressed as a percentage of that day's pretreatment levels; mean percent changes were then calculated for each treatment and time interval.
# [2] = Plasma insulin after glucose ingestion, radioimmunoassay (Example I); format: in vivo, human
# Method: as §1, §2, §3
smiles,measurement,setting,value
"O=C[C@H](O)[C@@H](O)[C@H](O)[C@H](O)CO [Glucose, glucose]",Plasma Iso level,"[1]; glucose 25 g, 0 min",71 ± 6 nmol/mL
same,Plasma LNAA (sum),"[1]; glucose 25 g, 0 min",639 ± 79 nmol/mL
same,Plasma Leu level,"[1]; glucose 25 g, 0 min",130 ± 13 nmol/mL
same,Plasma Met level,"[1]; glucose 25 g, 0 min",26 ± 3 nmol/mL
same,Plasma Phe level,"[1]; glucose 25 g, 0 min",56 ± 3 nmol/mL
same,Plasma Trp level,"[1]; glucose 25 g, 0 min",47 ± 2 nmol/mL
same,Plasma Tyr level,"[1]; glucose 25 g, 0 min",63 ± 3 nmol/mL
same,Plasma Val level,"[1]; glucose 25 g, 0 min",294 ± 50 nmol/mL
same,Trp/LNAA,"[1]; glucose 25 g, 0 min",.073
same,Plasma Iso level,"[1]; glucose 25 g, 60 min",48 ± 4 nmol/mL
same,Plasma LNAA (sum),"[1]; glucose 25 g, 60 min",466 ± 45 nmol/mL
same,Plasma Leu level,"[1]; glucose 25 g, 60 min",84 ± 10 nmol/mL
same,Plasma Met level,"[1]; glucose 25 g, 60 min",21 ± 2 nmol/mL
same,Plasma Phe level,"[1]; glucose 25 g, 60 min",47 ± 4 nmol/mL
same,Plasma Trp level,"[1]; glucose 25 g, 60 min",42 ± 2 nmol/mL
same,Plasma Tyr level,"[1]; glucose 25 g, 60 min",49 ± 2 nmol/mL
same,Plasma Val level,"[1]; glucose 25 g, 60 min",218 ± 29 nmol/mL
same,Trp/LNAA,"[1]; glucose 25 g, 60 min",.091
same,Plasma Iso level,"[1]; glucose 25 g, 120 min",46 ± 4 nmol/mL
same,Plasma LNAA (sum),"[1]; glucose 25 g, 120 min",454 ± 40 nmol/mL
same,Plasma Leu level,"[1]; glucose 25 g, 120 min",91 ± 8 nmol/mL
same,Plasma Met level,"[1]; glucose 25 g, 120 min",19 ± 2 nmol/mL
same,Plasma Phe level,"[1]; glucose 25 g, 120 min",41 ± 2 nmol/mL
same,Plasma Trp level,"[1]; glucose 25 g, 120 min",41 ± 3 nmol/mL
same,Plasma Tyr level,"[1]; glucose 25 g, 120 min",46 ± 2 nmol/mL
same,Plasma Val level,"[1]; glucose 25 g, 120 min",212 ± 26 nmol/mL
same,Trp/LNAA,"[1]; glucose 25 g, 120 min",.089
same,Plasma Iso level,"[1]; glucose 50 g, 0 min",61 ± 4 nmol/mL
same,Plasma LNAA (sum),"[1]; glucose 50 g, 0 min",573 ± 60 nmol/mL
same,Plasma Leu level,"[1]; glucose 50 g, 0 min",114 ± 11 nmol/mL
same,Plasma Met level,"[1]; glucose 50 g, 0 min",26 ± 2 nmol/mL
same,Plasma Phe level,"[1]; glucose 50 g, 0 min",50 ± 2 nmol/mL
same,Plasma Trp level,"[1]; glucose 50 g, 0 min",46 ± 2 nmol/mL
same,Plasma Tyr level,"[1]; glucose 50 g, 0 min",59 ± 4 nmol/mL
same,Plasma Val level,"[1]; glucose 50 g, 0 min",262 ± 40 nmol/mL
same,Trp/LNAA,"[1]; glucose 50 g, 0 min",.080
same,Plasma Iso level,"[1]; glucose 50 g, 60 min",48 ± 2 nmol/mL
same,Plasma LNAA (sum),"[1]; glucose 50 g, 60 min",469 ± 52 nmol/mL
same,Plasma Leu level,"[1]; glucose 50 g, 60 min",93 ± 11 nmol/mL
same,Plasma Met level,"[1]; glucose 50 g, 60 min",21 ± 2 nmol/mL
same,Plasma Phe level,"[1]; glucose 50 g, 60 min",50 ± 4 nmol/mL
same,Plasma Trp level,"[1]; glucose 50 g, 60 min",40 ± 1 nmol/mL
same,Plasma Tyr level,"[1]; glucose 50 g, 60 min",43 ± 3 nmol/mL
same,Plasma Val level,"[1]; glucose 50 g, 60 min",215 ± 32 nmol/mL
same,Trp/LNAA,"[1]; glucose 50 g, 60 min",.085
same,Plasma Iso level,"[1]; glucose 50 g, 120 min",36 ± 4 nmol/mL
same,Plasma LNAA (sum),"[1]; glucose 50 g, 120 min",372 ± 50 nmol/mL
same,Plasma Leu level,"[1]; glucose 50 g, 120 min",72 ± 10 nmol/mL
same,Plasma Met level,"[1]; glucose 50 g, 120 min",18 ± 2 nmol/mL
same,Plasma Phe level,"[1]; glucose 50 g, 120 min",37 ± 2 nmol/mL
same,Plasma Trp level,"[1]; glucose 50 g, 120 min",35 ± 2 nmol/mL
same,Plasma Tyr level,"[1]; glucose 50 g, 120 min",40 ± 4 nmol/mL
same,Plasma Val level,"[1]; glucose 50 g, 120 min",170 ± 30 nmol/mL
same,Trp/LNAA,"[1]; glucose 50 g, 120 min",.094
same,"Mean percent reductions of LNAA, dose-dependence","[1]; healthy fasting subjects, most clearly observed after 120 min",tended to exhibit dose-dependence; also recorded: dose-related decreases in plasma LNAA concentrations
same,Glucose doses needed to increase the plasma TRP/LNAA ratio,[1]; healthy young fasting subjects,25 to 50 g
same,"Mean absolute LNAA concentrations, dose-related decrease",[1]; high intra- and inter-individual variations in basal LNAA,no significant dose-related decreases in mean absolute LNAA concentrations
same,Tryptophan/LNAA ratio,[1]; smaller reduction in plasma tryptophan,became elevated
same,Glucose dose sufficient to decrease LNAA,[1]; some subjects,6 g
same,Glucose dose probably required to reduce plasma LNAA,[1]; subject 2,~12.5 g
same,Glucose dose that may have been needed to reduce plasma LNAA,[1]; subject 4,~25 g
same,Glucose dose that may have been sufficient to reduce plasma LNAA,"[1]; subjects 1, 3, 5 and 6, one or more of the times tested",~6 g
same,Mean plasma glucose concentration,clinical; human,83±2.2 mg %
same,concentration at 0.5 h,"clinical; human, po, Mean plasma glucose concentration",1050 ± 86 µg/mL
same,Time for plasma glucose to return to baseline,clinical,60 to 120 min
same,"Elevation in insulin, 50-g vs 25-g dose",[2]; 50 g vs 25 g glucose,greater elevation in insulin than the 25-g dose in 4 of the 6 subjects
same,Insulin levels,"[2]; 30 min after 12.5, 25 or 50 g of glucose",significantly elevated
same,Mean insulin concentration,[2]; before ingestion (baseline),9±0.9 μU/ml
same,Mean insulin concentration,"[2]; glucose 12.5 g, 30 min",21.3±3.8 μU/ml
same,Mean insulin concentration,"[2]; glucose 25 g, 30 min",44±5.0 μU/ml
same,Mean insulin concentration,"[2]; glucose 50 g, 30 min",58±6.9 μU/ml

# — patent publication US4542123A (Massachusetts Institute of Technology, priority 1982, dated 1985)
